For the assay, the target named is T1, Q46 protein aggregates (Homo sapiens, UniProt P42858, INS38QQQQQQQQQQQQQQQQQQQQQQQQQ).
T1 construct: fused on or other part: GST at the N-terminus, cut off by thrombin before the test to start aggregation
As to the kind of experiment: Q46 Radioligand Binding Assay (RBA). To be noted: displacement of 10 nM [3H3]MK-3328 from 5 μM aggregated Q46 protein, 60 minutes at 37° C. As to the method: Q46 Radioligand Binding Assay
For radioligand binding assays (RBA) GST-Q46 protein was generated based on a previous publication (Scherzinger et al. Cell, Vol. 90, 549-558, Aug. 8, 1997). For experiments 33 μM GST-Q46 was incubated with 150 μg/mL thrombin in assay buffer (150 mM NaCl, 50 mM Tris pH 8.0) and 2 mM CaCl2 for 16 hours at 37° C. Aggregated Q46 was pelleted by centrifugation for 5 minutes at 13,000 rpm in a bench top centrifuge and re-dissolved in the same volume of assay buffer. Test compounds were prepared by titration in DMSO at 11 concentrations from 33 μM to 1 nM. For the RBA, Q46 protein aggregates and test compounds were pre-incubated in assay buffer for 20 minutes at room temperature, in 140 μL/well in a 96-well plate (pp, round bottom). Then, ligand was added in 10 μL/well and incubated for 60 minutes at 37° C. Final assay concentrations were […] test compound, 5 μM Q46 protein (equivalent monomer concentration) and 10 nM ligand [^3H3]MK-3328 (Harrision et al., ACS Med. Chem. Lett., 2 (2011), pp 498-502). Samples were transferred onto GF/B filter plates and washed 2× with 200 μL PBS using a Filtermate Harvester. After drying filter plates for 1 hour at 37° C., the back of the plates was sealed with foil and 30 μl/well scintillation fluid (Packard MicroScint 40) was added, incubated for […] 15 minutes in the dark and counted in a TopCount reader. For analysis, replicate data from independent assay plates were normalized towards 0% and 100% inhibition using control wells of vehicle (0% inhibition) and 3 μM unlabelled MK-3328 (100% inhibition). IC50 values were determined with a sigmoidal inhibition model with four variables (top, bottom, slope, IC50) in a global fit using the normalized replicate data.

Our source for the IC50 values is patent US11851446B2, “Probes for imaging Huntingtin protein” (CHDI Foundation, Inc., priority 2014, dated 2023).

Where only a bound is given, the exact number is not on record here.

T1 sequence (P42858 with tags, fused parts or gaps with the stated changes): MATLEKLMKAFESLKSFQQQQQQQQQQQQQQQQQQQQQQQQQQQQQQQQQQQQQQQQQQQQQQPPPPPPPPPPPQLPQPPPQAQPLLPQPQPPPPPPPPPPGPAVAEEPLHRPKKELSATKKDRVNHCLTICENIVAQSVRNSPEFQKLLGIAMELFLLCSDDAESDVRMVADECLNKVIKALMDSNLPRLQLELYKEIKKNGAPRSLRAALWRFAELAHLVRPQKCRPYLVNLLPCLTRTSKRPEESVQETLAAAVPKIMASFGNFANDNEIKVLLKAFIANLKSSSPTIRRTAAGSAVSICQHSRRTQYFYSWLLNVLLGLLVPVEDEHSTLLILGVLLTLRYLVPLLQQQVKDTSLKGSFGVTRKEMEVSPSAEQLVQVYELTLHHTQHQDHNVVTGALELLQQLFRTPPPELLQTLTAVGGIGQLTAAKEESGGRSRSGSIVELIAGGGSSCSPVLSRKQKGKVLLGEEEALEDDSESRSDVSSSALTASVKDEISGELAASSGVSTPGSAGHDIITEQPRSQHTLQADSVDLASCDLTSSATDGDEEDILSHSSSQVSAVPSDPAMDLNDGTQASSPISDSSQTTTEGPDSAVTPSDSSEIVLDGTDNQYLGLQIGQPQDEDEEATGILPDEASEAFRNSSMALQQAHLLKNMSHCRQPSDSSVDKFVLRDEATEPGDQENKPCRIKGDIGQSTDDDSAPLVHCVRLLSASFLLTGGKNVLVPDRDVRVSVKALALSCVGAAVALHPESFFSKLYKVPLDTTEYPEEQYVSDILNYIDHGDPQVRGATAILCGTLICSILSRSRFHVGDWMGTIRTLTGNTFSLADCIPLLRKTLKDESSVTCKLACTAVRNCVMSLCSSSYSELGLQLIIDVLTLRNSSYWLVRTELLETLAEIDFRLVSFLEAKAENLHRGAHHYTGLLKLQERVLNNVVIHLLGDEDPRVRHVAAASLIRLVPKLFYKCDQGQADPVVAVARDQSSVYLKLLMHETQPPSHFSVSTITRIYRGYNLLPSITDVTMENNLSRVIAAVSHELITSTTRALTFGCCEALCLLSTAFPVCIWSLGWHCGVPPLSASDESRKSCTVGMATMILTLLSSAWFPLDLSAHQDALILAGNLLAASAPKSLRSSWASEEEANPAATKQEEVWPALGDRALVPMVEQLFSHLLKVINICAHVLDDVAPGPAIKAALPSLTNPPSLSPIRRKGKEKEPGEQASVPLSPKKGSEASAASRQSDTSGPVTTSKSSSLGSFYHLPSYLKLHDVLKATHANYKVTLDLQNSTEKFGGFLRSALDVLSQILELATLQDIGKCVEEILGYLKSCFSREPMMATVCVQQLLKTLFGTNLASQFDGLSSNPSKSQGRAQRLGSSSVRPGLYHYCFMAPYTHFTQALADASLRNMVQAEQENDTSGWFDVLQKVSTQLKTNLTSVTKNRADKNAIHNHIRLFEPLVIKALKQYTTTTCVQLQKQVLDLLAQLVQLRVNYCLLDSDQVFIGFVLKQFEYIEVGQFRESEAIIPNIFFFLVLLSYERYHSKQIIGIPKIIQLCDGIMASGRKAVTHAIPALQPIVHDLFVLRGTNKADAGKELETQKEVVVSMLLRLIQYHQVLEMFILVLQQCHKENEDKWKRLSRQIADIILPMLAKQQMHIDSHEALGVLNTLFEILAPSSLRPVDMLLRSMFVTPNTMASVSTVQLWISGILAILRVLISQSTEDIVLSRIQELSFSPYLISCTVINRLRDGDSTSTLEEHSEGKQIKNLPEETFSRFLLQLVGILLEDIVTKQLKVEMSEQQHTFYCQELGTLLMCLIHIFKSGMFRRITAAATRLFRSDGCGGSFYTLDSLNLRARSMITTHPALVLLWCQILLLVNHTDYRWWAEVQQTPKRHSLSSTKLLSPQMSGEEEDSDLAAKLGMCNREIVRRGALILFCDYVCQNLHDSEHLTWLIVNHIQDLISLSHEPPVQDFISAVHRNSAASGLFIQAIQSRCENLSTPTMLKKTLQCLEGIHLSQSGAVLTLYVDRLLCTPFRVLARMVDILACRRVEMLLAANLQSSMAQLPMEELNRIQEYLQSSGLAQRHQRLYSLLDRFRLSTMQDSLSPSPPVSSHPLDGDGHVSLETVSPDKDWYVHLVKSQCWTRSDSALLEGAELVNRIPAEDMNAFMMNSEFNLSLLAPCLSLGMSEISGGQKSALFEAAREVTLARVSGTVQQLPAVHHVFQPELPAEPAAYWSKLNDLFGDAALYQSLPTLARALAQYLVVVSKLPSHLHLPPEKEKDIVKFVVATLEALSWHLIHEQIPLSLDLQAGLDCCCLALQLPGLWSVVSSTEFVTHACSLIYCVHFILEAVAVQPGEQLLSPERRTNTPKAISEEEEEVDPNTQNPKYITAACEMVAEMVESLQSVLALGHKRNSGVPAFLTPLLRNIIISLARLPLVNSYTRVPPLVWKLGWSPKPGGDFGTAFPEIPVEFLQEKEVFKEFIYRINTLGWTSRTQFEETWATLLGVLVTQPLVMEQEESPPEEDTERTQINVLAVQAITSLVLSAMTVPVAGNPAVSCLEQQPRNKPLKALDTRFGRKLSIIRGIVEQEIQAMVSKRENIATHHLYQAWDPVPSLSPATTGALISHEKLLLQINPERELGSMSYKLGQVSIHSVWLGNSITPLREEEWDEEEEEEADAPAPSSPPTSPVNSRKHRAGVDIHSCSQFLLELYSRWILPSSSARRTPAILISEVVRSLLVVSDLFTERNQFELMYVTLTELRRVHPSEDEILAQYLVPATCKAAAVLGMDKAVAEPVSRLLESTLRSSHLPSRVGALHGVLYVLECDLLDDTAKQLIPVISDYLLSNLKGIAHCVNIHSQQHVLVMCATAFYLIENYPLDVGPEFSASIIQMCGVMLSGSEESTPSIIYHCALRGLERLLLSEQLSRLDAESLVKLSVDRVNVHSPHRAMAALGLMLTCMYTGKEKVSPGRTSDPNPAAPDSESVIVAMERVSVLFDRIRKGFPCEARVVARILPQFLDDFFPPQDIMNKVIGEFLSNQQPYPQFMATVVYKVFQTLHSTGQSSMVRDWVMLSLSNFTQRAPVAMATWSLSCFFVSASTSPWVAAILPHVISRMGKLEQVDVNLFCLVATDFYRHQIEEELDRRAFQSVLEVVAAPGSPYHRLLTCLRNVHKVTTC

As for `CNc1c(-c2cc3cc(OCc4cccnc4)ccc3o2)nc2cc(C#N)ccn12` [3-(methylamino)-2-[5-(pyridin-3-ylmethoxy)-1-benzofuran-2-yl]imidazo[1,2-a]pyridine-7-carbonitrile], the IC50 is below 100 nM. As to `CNc1c(-c2cccc(-c3cnccn3)c2)nc2cc(C#N)ccn12` [3-(methylamino)-2-[3-(pyrazin-2-yl)phenyl]imidazo[1,2-a]pyridine-7-carbonitrile], the IC50 was below 100 nM.

In the case of `CNc1c(/C=C/c2ccc(OC)cc2)nc2cc(C#N)ccn12` [2-[(E)-2-(4-methoxyphenyl)ethenyl]-3-(methylamino)imidazo[1,2-a]pyridine-7-carbonitrile], the IC50 is below 100 nM. The figure for `CNc1c(-c2cc3cc(OC)ccc3o2)nc2cc(F)ccn12` [7-fluoro-2-(5-methoxy-1-benzofuran-2-yl)-N-methylimidazo[1,2-a]pyridin-3-amine] is below 100 nM; for `CNc1c(-c2cc3cc(OCCN(C)C)ccc3o2)nc2cc(C#N)ccn12` [2-{5-[2-(dimethylamino)ethoxy]-1-benzofuran-2-yl}-3-(methylamino)imidazo[1,2-a]pyridine-7-carbonitrile] it is 100 to 500 nM.

Take `COCCNc1c(-c2cc3cc(OC)ccc3o2)nc2ccccn12` [2-(5-methoxy-1-benzofuran-2-yl)-N-(2-methoxyethyl)imidazo[1,2-a]pyridin-3-amine]: the IC50 lay in the range of 100 to 500 nM. With `N#Cc1ccn2c(N)c(-c3cc4cc(OCCF)ccc4o3)nc2c1` [3-amino-2-[5-(2-fluoroethoxy)-1-benzofuran-2-yl]imidazo[1,2-a]pyridine-7-carbonitrile], the IC50 was below 100 nM.

As for `CNc1c(-c2ccc(OCc3cnc(OC)cn3)cc2)nc2cc(C#N)ccn12` [2-{4-[(5-methoxypyrazin-2-yl)methoxy]phenyl}-3-(methylamino)imidazo[1,2-a]pyridine-7-carbonitrile], the IC50 was below 100 nM. `CNc1c(-c2cn3c(n2)sc2cc(OC)ccc23)nc2cc(C#N)ccn12` [2-{10-methoxy-7-thia-2,5-diazatricyclo[6.4.0.0^2,6]dodeca-1(12),3,5,8,10-pentaen-4-yl}-3-(methylamino)imidazo[1,2-a]pyridine-7-carbonitrile] had an IC50 below 100 nM. The molecule `CNc1c(-c2cnc(OCc3ccc(OC)cn3)cn2)nc2cc(C#N)ccn12` [2-{5-[(5-methoxypyridin-2-yl)methoxy]pyrazin-2-yl}-3-(methylamino)imidazo[1,2-a]pyridine-7-carbonitrile] showed an IC50 below 100 nM. The figure for `CNc1c(-c2cc3cc(OC)ccc3o2)nc2cc(C#N)ccn12` [2-(5-methoxy-1-benzofuran-2-yl)-3-(methylamino)imidazo[1,2-a]pyridine-7-carbonitrile] is below 100 nM; for `COc1ccc2oc(-c3nc4cc(C#N)ccn4c3N(C)C)cc2c1` [3-(dimethylamino)-2-(5-methoxy-1-benzofuran-2-yl)imidazo[1,2-a]pyridine-7-carbonitrile] it is 100 to 500 nM; for `CNc1c(-c2cccc(COCc3cccnc3)c2)nc2cc(C#N)ccn12` [3-(methylamino)-2-{3-[(pyridin-3-ylmethoxy)methyl]phenyl}imidazo[1,2-a]pyridine-7-carbonitrile] it is 100 to 500 nM.

The molecule `CNc1c(-c2ccc3c(c2)OCCO3)nc2cc(C#N)ccn12` [2-(2,3-dihydro-1,4-benzodioxin-6-yl)-3-(methylamino)imidazo[1,2-a]pyridine-7-carbonitrile] came in with an IC50 of 100 to 500 nM.

Regarding `CNc1c(-c2ccc(NCc3ccc(OC)cn3)cc2)nc2cc(C#N)ccn12` [2-(4-{[(5-methoxypyridin-2-yl)methyl]amino}phenyl)-3-(methylamino)imidazo[1,2-a]pyridine-7-carbonitrile], the IC50 is below 100 nM. Consider `COc1ccc2oc(-c3nc4cc(C#N)ccn4c3CN(C)C)cc2c1` [3-[(dimethylamino)methyl]-2-(5-methoxy-1-benzofuran-2-yl)imidazo[1,2-a]pyridine-7-carbonitrile], for which the IC50 was 100 to 500 nM. On to `CNc1c(-c2cc3ccc(OC)cc3o2)nc2cc(C#N)ccn12` [2-(6-methoxy-1-benzofuran-2-yl)-3-(methylamino)imidazo[1,2-a]pyridine-7-carbonitrile], for which the IC50 was below 100 nM. `CNc1c(-c2cc3c(o2)CCN(C(=O)OC(C)(C)C)C3)nc2cc(C#N)ccn12` [tert-butyl 2-[7-cyano-3-(methylamino)imidazo[1,2-a]pyridin-2-yl]-4H,5H,6H,7H-furo[3,2-c]pyridine-5-carboxylate]: the IC50 fell in the range of 100 to 500 nM. With `COCc1c(-c2cc3cc(OC)ccc3o2)nc2cc(C#N)ccn12` [2-(5-methoxy-1-benzofuran-2-yl)-3-(methoxymethyl)imidazo[1,2-a]pyridine-7-carbonitrile], the IC50 was below 100 nM.

`CNc1c(-c2cccc(OCc3cnc(OC)cn3)c2)nc2cc(C#N)ccn12` [2-{3-[(5-methoxypyrazin-2-yl)methoxy]phenyl}-3-(methylamino)imidazo[1,2-a]pyridine-7-carbonitrile] displayed an IC50 below 100 nM. Consider `CNc1c(-c2cc3cc(OC)ccc3o2)nc2cc(OC)ccn12` [7-methoxy-2-(5-methoxy-1-benzofuran-2-yl)-N-methylimidazo[1,2-a]pyridin-3-amine], for which the IC50 was below 100 nM. As for `CNc1c(-c2nc3cc(OC)ccc3n2C)nc2cc(C#N)ccn12` [2-(5-methoxy-1-methyl-1H-1,3-benzodiazol-2-yl)-3-(methylamino)imidazo[1,2-a]pyridine-7-carbonitrile], the IC50 was below 100 nM.

For `CNc1c(-c2ccc(C#N)cc2)nc2cc(C#N)ccn12` [2-(4-cyanophenyl)-3-(methylamino)imidazo[1,2-a]pyridine-7-carbonitrile], the IC50 is below 100 nM.

`COc1ccc2oc(-c3nc4cc(C#N)ccn4c3NCCN(C)C)cc2c1` [3-{[2-(dimethylamino)ethyl]amino}-2-(5-methoxy-1-benzofuran-2-yl)imidazo[1,2-a]pyridine-7-carbonitrile] returned an IC50 of 100 to 500 nM. Take `C#CCOc1ccc(-c2nc3cc(C#N)ccn3c2NC)cc1` [3-(methylamino)-2-[4-(prop-2-yn-1-yloxy)phenyl]imidazo[1,2-a]pyridine-7-carbonitrile]: the IC50 lay in the range of 100 to 500 nM. `CNc1c(-c2cc3cc(OC)ccc3o2)nc2cc(Br)ccn12` [7-bromo-2-(5-methoxy-1-benzofuran-2-yl)-N-methylimidazo[1,2-a]pyridin-3-amine]: the IC50 was below 100 nM. On to `CNc1c(-c2cc3cc(OC)ccc3o2)nc2cc(Cl)ccn12` [7-chloro-2-(5-methoxy-1-benzofuran-2-yl)-N-methylimidazo[1,2-a]pyridin-3-amine], for which the IC50 is below 100 nM. Consider `CNc1c(-c2nc3ccc(OC)cc3s2)nc2cc(C#N)ccn12` [2-(6-methoxy-1,3-benzothiazol-2-yl)-3-(methylamino)imidazo[1,2-a]pyridine-7-carbonitrile], for which the half-inhibitory concentration (IC50) is below 100 nM. `COc1ccc2oc(-c3cn4ccc(C#N)cc4n3)cc2c1` [2-(5-methoxy-1-benzofuran-2-yl)imidazo[1,2-a]pyridine-7-carbonitrile] registered an IC50 below 100 nM.

`CNc1c(-c2nc3cc(OC)ccc3[nH]2)nc2cc(C#N)ccn12` [2-(5-methoxy-1H-1,3-benzodiazol-2-yl)-3-(methylamino)imidazo[1,2-a]pyridine-7-carbonitrile] registered an IC50 below 100 nM.

Molecule `CNc1c(-c2ccc3occc3c2)nc2cc(C#N)ccn12` [2-(1-benzofuran-5-yl)-3-(methylamino)imidazo[1,2-a]pyridine-7-carbonitrile] showed an IC50 of 100 to 500 nM. Molecule `OCCNc1c(-c2cc3cc(O)ccc3o2)nc2ccccn12` [2-{3-[(2-hydroxyethyl)amino]imidazo[1,2-a]pyridin-2-yl}-1-benzofuran-5-ol] registered an IC50 of 100 to 500 nM.

In turn, `CNc1c(-c2cc3cc(OC)ccc3o2)nc2ccc(F)cn12` [6-fluoro-2-(5-methoxy-1-benzofuran-2-yl)-N-methylimidazo[1,2-a]pyridin-3-amine] came in with an IC50 below 100 nM. In turn, `CNc1c(-c2cc3cc(OC)ccc3o2)nc2cc(CN)ccn12` [7-(aminomethyl)-2-(5-methoxy-1-benzofuran-2-yl)-N-methylimidazo[1,2-a]pyridin-3-amine] registered an IC50 of 100 to 500 nM. For the molecule `CNc1c(-c2cc3cc(O)ccc3o2)nc2cc(C#N)ccn12` [2-(5-hydroxy-1-benzofuran-2-yl)-3-(methylamino)imidazo[1,2-a]pyridine-7-carbonitrile], the IC50 is below 100 nM. `CNc1c(-c2cc3cc(F)ccc3o2)nc2ccccn12` [2-(5-fluoro-1-benzofuran-2-yl)-N-methylimidazo[1,2-a]pyridin-3-amine] gave a half-inhibitory concentration (IC50) above 500 nM. Consider `CNc1c(-c2ccc(OCc3cnc(OC)cn3)nc2)nc2cc(C#N)ccn12` [2-{6-[(5-methoxypyrazin-2-yl)methoxy]pyridin-3-yl}-3-(methylamino)imidazo[1,2-a]pyridine-7-carbonitrile], for which the IC50 is below 100 nM.

By IC50 is commonly meant the concentration at which inhibition is half-maximal. Low values mean greater potency, high ones weaker potency.
